Values joined by “and” are separate entries in the source; they are usually repeats but may differ in a detail not shown here. Equal values may be shown once.
System: RPMI-8226 cells
Assay: Gene expression profiling, NanoString nCounter PanCancer Pathways Panel, ROSALIND analysis
Assay type: cell-based, human
Conditions: RPMI-8226, TCH-165 samples 1-3
Method: RPMI-8226 cells were treated with vehicle or TCH-165 (10 μM) for 4 h. Total RNA was obtained using the mirVana miRNA Isolation Kit, with phenol (Thermofisher Scientific; AM1560; Waltham, MA, USA). Total RNA was quantified by Qubit (Thermofisher Scientific; Q32855; Waltham, MA, USA). and gene expression was evaluated against the nCounter® PanCancer Pathways Panel^TM according to the standard NanoString protocol.
Data were analyzed by ROSALIND® [36] with a hyperscale architecture developed by ROSALIND, Inc. (San Diego, CA, USA). Normalization, fold changes and p-values were calculated using criteria provided by NanoString. ROSALIND follows the nCounter® Advanced Analysis protocol of dividing counts within a lane by the geometric mean of the normalizer probes from the same lane. Housekeeping probes to be used for normalization are selected based on the geNorm algorithm, as implemented in the NormqPCR R library. Fold changes and p-values are calculated using the fast method as described in the nCounter Advanced Analysis 2.0 User Manual. The p-value adjustment is performed using the Benjamini–Hochberg method of estimating false discovery rates (FDR). Clustering of genes for the final heatmap of differentially expressed genes was done using the PAM (Partitioning Around Medoids) method using the fpc R library. Hypergeometric distribution was used to analyze the enrichment of pathways, gene ontology, domain structure and other ontologies. The topGO R library was used to determine local similarities and dependencies between GO terms in order to perform Elim pruning correction. Several database sources were referenced for enrichment analysis, including Interpro [40], NCBI [41], MSigDB [42, 43], REACTOME [44], WikiPathways. Enrichment was calculated relative to a set of background genes relevant to the experiment.

CCOC(=O)[C@]1(c2ccccc2)N=C(c2ccc(OC)cc2)N(Cc2ccccc2)[C@@H]1c1ccc(NCc2ccccc2)cc1 [TCH-165]
FGF2 normalized gene expression: 5.208 and 4.324 and 4.613
FGF3 normalized gene expression: 4.401 and 4.524 and 4.693
FGF4 normalized gene expression: 5.044 and 4.927 and 4.613
FGF5 normalized gene expression: 2.723 and 2.569 and 3.0682
FGF6 normalized gene expression: 3.86 and 3.891 and 3.184
FGF7 normalized gene expression: 4.86 and 4.996 and 4.653
FGF8 normalized gene expression: 4.723 and 3.569 and 3.805
FGF9 normalized gene expression: 7.044 and 7.045 and 7.083
FGF10 normalized gene expression: 5.308 and 4.614 and 4.975
FGF11 normalized gene expression: 5.53 and 5.154 and 4.975
FGF12 normalized gene expression: 3.86 and 4.7789 and 4.769
FGF13 normalized gene expression: 8.993 and 9.004 and 8.947
FGF14 normalized gene expression: 4.86 and 4.891 and 4.769
FGF16 normalized gene expression: 4.793 and 4.996 and 4.731
FGF17 normalized gene expression: 2.723 and 3.154 and 3.653
FGF18 normalized gene expression: 4.101 and 2.3768 and 3.39
FGF19 normalized gene expression: 3.86 and 4.029 and 4.1271
FGF20 normalized gene expression: 4.571 and 4.817 and 4.876
FGF21 normalized gene expression: 5.955 and 5.636 and 5.712
FGF22 normalized gene expression: 5.827 and 5.569 and 5.098
FGF23 normalized gene expression: 5.208 and 5.124 and 5.341
FGFR1 normalized gene expression: 4.488 and 4.324 and 4.528
FGFR2 normalized gene expression: 6.015 and 5.836 and 5.461
FGFR3 normalized gene expression: 5.488 and 4.614 and 4.9095
FGFR4 normalized gene expression: 4.401 and 3.891 and 4.1271
FIGF normalized gene expression: 4.101 and 3.817 and 2.943
FLNA normalized gene expression: 9.475 and 9.497 and 9.54
FLNC normalized gene expression: 5.924 and 5.979 and 5.528
FLT1 normalized gene expression: 3.401 and 4.029 and 3.653
FLT3 normalized gene expression: 3.401 and 2.739 and 3.0682
FN1 normalized gene expression: 13.4955 and 13.457 and 13.4134
FOS normalized gene expression: 7.234 and 7.603 and 7.613
FOSL1 normalized gene expression: 5.892 and 5.759 and 5.712
FOXL2 normalized gene expression: 4.924 and 4.569 and 4.528
FOXO4 normalized gene expression: 6.986 and 7.124 and 6.787
FST normalized gene expression: 5.308 and 5.093 and 5.184
FUBP1 normalized gene expression: 10.9203 and 10.8641 and 10.8501
FUT8 normalized gene expression: 8.45 and 8.328 and 8.338
FZD2 normalized gene expression: 4.571 and 4.817 and 5.211
FZD3 normalized gene expression: 7.195 and 7.427 and 7.378
FZD7 normalized gene expression: 4.986 and 4.7789 and 4.805
FZD8 normalized gene expression: 4.401 and 3.569 and 4.1271
FZD9 normalized gene expression: 5.208 and 4.029 and 4.341
FZD10 normalized gene expression: 4.86 and 3.962 and 4.437
GADD45A normalized gene expression: 9.132 and 9.301 and 9.248
GADD45B normalized gene expression: 7.884 and 7.9093 and 7.914
GADD45G normalized gene expression: 4.101 and 4.569 and 4.693
GAS1 normalized gene expression: 5.259 and 4.029 and 4.653
GATA1 normalized gene expression: 5.156 and 4.476 and 4.437
GATA2 normalized gene expression: 4.924 and 4.476 and 4.0068
GATA3 normalized gene expression: 2.986 and 4.029 and 4.1271
GHR normalized gene expression: 4.208 and 4.657 and 4.876
GLI1 normalized gene expression: 4.793 and 4.996 and 5.1271
GLI3 normalized gene expression: 7.234 and 6.709 and 6.884
GNA11 normalized gene expression: 6.86 and 6.739 and 6.602
GNAQ normalized gene expression: 4.86 and 5.324 and 4.653
GNAS normalized gene expression: 10.7886 and 10.9336 and 10.8358
GNG4 normalized gene expression: 4.208 and 4.569 and 4.9095
GNG7 normalized gene expression: 5.488 and 5.452 and 4.975
GNGT1 normalized gene expression: 4.86 and 4.699 and 4.341
GPC4 normalized gene expression: 4.986 and 4.324 and 4.238
GRB2 normalized gene expression: 11.2288 and 11.2361 and 11.1936
GRIA3 normalized gene expression: 5.101 and 4.029 and 4.39
GRIN1 normalized gene expression: 6.182 and 5.836 and 5.975
GRIN2A normalized gene expression: 5.955 and 5.678 and 5.437
GRIN2B normalized gene expression: 3.401 and 3.476 and 2.943
GSK3B normalized gene expression: 8.384 and 8.242 and 8.36
GTF2H3 normalized gene expression: 9.358 and 9.284 and 9.271
GZMB normalized gene expression: 4.649 and 4.029 and 4.5707
H2AFX normalized gene expression: 9.249 and 8.96 and 9.049
H3F3A normalized gene expression: 13.5139 and 13.5375 and 13.5217
HDAC1 normalized gene expression: 9.665 and 9.611 and 9.679
HDAC2 normalized gene expression: 11.0236 and 10.9286 and 10.9442
HDAC4 normalized gene expression: 6.986 and 6.798 and 6.778
HDAC5 normalized gene expression: 8.03 and 8.069 and 8.049
HDAC6 normalized gene expression: 7.658 and 7.699 and 7.643
HELLS normalized gene expression: 9.578 and 9.451 and 9.503
HES1 normalized gene expression: 4.924 and 4.855 and 4.613
HGF normalized gene expression: 8.129 and 8.033 and 8.145
HHEX normalized gene expression: 5.986 and 6.012 and 5.943
HIST1H3B normalized gene expression: 15.271 and 14.9487 and 14.86
HIST1H3G normalized gene expression: 14.1552 and 13.7784 and 13.7341
HIST1H3H normalized gene expression: 15.3267 and 14.9451 and 14.9056
HMGA1 normalized gene expression: 10.7304 and 10.6516 and 10.6817
HMGA2 normalized gene expression: 4.86 and 4.657 and 4.0068
HNF1A normalized gene expression: 5.53 and 4.962 and 4.769
HOXA9 normalized gene expression: 5.355 and 5.242 and 5.291
HOXA10 normalized gene expression: 5.61 and 5.592 and 5.437
HOXA11 normalized gene expression: 4.986 and 5.093 and 5.414
HPGD normalized gene expression: 4.208 and 4.3768 and 5.0068
